{
  "source": "patent US20100184852A1",
  "about": "“ORGANIC COMPOUNDS FOR TREATMENT OF DISORDERS CONNECTED TO IMPAIRED NEUROTRANSMISSION” (priority 2006, published 2010)",
  "key": {"[1]": {"target": "T1, human serotonin re-uptake transporter (hSERT) (Homo sapiens, UniProt P31645)", "T1 construct": "host or cells: HEK-293", "T1 sequence (P31645 whole entry)": "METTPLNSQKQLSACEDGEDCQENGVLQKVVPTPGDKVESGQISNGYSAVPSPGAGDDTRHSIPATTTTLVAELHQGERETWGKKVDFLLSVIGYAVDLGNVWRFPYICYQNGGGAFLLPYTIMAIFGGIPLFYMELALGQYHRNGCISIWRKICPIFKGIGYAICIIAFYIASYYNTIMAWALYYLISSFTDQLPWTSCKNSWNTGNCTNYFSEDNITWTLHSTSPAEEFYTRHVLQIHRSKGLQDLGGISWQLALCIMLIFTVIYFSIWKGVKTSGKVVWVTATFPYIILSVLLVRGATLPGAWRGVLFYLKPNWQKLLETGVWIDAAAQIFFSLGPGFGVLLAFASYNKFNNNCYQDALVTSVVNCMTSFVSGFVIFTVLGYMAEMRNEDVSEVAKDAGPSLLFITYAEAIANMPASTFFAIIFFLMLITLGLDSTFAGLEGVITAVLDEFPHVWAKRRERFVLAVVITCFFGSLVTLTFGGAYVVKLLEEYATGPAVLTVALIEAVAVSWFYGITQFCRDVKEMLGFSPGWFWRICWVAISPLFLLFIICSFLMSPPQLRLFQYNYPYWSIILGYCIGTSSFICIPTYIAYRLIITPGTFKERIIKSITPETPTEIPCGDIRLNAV", "assay": "Serotonin uptake inhibition in HEK-293 cells expressing hSERT", "type": "cell-based", "details": "transfected HEK-293 cells; 20 nM (3H) serotonin, 30 minutes; average +/− s.e.m.; read-out: IC50 for tritiated serotonin uptake", "protocol": "HEK-293 cells stably expressing the human serotonin re-uptake transporter (hSERT) were obtained from R. Blakely, Vanderbilt University, USA. The cells were routinely grown in Dulbeco's Modified Eagles Medium, purchased from Bioconcept, Allschwil, Switzerland containing 10% fetal calf serum, penicillin, streptomycin, L-glutamine and the antibiotic G418 and passaged by trypsinisation. One day prior to the assay cells were seeded in the above mentioned medium. Immediately prior to the assay the medium was replaced by Krebs Ringers bicarbonate buffer, purchased from Sigma Chemicals Ltd., supplemented with 35 μM pargyline, 2.2 mM CaCl2, 1 mM ascorbic acid and 5 mM N-2-hydroxyethylpiperazine-N′-2-ethanesulfonic acid (buffer called “Hepes”). Serotonin uptake into the cells was determined by addition of radio-labeled (3H) serotonin (Amersham Biosciences GE Healthcare, Slough, UK) to a concentration of 20 nM, and incubation for 30 minutes at room temperature. Following removal of unincorporated label by gentle washing three times with the above buffer, incorporated serotonin was quantified by liquid scintillation counting.\nThe effect of the compounds of formula I on the serotonin uptake was determined by its inclusion in the assay at a range of concentrations between 0.03 and 100 μM for 10 minutes prior to and during the addition of (3H) serotonin/citalopram. Serotonin uptake via the transporter was inhibited by ligustilide, 3-butylphthalide, senkyunolide A, senkyunolide C, senkyunolide B, and cnidilide, respectively, in a dose dependent manner, with IC50 values as shown in Table 2."}, "[2]": {"target": "T2, Monoamine oxidase B (MAO-B) (Homo sapiens, UniProt P27338)", "T2 sequence (P27338 1-520)": "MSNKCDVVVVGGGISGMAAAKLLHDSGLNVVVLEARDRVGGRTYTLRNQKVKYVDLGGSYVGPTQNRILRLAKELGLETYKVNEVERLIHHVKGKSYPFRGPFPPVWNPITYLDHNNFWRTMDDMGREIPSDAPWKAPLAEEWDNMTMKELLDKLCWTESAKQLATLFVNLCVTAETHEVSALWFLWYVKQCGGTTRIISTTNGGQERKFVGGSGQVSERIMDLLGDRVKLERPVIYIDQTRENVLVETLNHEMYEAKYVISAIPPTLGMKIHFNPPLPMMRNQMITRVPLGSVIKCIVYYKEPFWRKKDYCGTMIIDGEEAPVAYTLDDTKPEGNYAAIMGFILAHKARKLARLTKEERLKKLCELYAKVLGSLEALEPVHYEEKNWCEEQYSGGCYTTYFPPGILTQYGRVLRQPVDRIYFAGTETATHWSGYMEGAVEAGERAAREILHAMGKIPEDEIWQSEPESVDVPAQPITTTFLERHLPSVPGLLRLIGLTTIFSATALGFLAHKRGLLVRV", "assay": "Monoaminooxidase B inhibition (H2O2/vanillic acid/HRP readout)", "type": "biochemical", "protocol": "(§1) The organic amines p-tyramine or benzylamine were used as substrates for the Monoamine oxidase A (MAO-A) and B (MAO-B) enzymes respectively. The H2O2 produced by this reaction was quantified by reaction with vanillic acid, catalysed by horse radish peroxidase (HRP).\n(§2) The reactions were carried out in polystyrene microtitre plates. The MAO enzymes (final concentration 2 U/ml) were mixed with either p-tyramine (Sigma, final concentration 0.5 mM) or benzylamine (Sigma, final concentration 0.5 mM) as appropriate and the chromogenic solution (containing vanillic acid (Fluka), 4-aminoantipyrine (Fluka) and horse radish peroxidase (Sigma), final concentrations 0.25 mM, 0.125 mM and 1 U/ml respectively) in 0.2 M potassium phosphate buffer pH 7.6. The reactions were followed in a microtitre plate absorbance reader eg Spectramax M5 (Molecular Devices Corporation). Absorbance readings at 495 nm were taken every 15 seconds for 40 minutes and the initial reaction velocities calculated by linear regression using SOFTmaxPro (Molecular Devices Corporation).\n(§3) The effect of ligustilide, 3-butylphthalide, senkyunolide C and cnidilide on the monoamine oxidase enzymes was determined by their inclusion in the assay at a range of concentrations between 0.03 and 100 μM for 10 minutes prior to and during the incubation with substrate. To determine the effect of the compounds on the HRP catalyzed portion of the reaction, the MAO enzyme was replaced by H2O2 (Molecular Probes, final concentration 0.2 mM). The reactions containing MAO-A and MAO-B were both inhibited by […] according to formula I in a dose dependent manner, whilst the control reaction, was unaffected. The measured IC50 values for inhibition of monoamine oxidase activity by ligustilide, 3-butylphthalide, senkyunolide C and enidilide, respectively, are shown in Table 3."}, "[3]": {"target": "T3, Monoamine oxidase A (MAO-A) (Homo sapiens, UniProt P21397)", "T3 sequence (P21397 1-527)": "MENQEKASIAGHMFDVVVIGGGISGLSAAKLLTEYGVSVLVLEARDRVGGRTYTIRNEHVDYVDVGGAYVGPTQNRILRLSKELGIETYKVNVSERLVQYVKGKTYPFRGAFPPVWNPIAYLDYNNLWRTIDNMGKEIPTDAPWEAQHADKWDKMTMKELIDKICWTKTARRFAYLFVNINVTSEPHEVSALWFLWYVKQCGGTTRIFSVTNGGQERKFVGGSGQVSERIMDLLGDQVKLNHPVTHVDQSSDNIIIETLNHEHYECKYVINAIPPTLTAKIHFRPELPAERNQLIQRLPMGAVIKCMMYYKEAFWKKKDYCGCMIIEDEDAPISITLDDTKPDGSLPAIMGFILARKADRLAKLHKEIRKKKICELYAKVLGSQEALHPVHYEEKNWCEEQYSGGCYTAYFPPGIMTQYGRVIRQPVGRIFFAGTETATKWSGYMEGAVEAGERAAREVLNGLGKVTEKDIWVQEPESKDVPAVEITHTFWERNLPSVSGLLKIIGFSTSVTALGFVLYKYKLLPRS", "assay": "Monoaminooxidase A inhibition (H2O2/vanillic acid/HRP readout)", "type": "biochemical", "protocol": "as §1, §2, §3"}},
  "data": [
    {"smiles": "CCCC[C@@H]1OC(=O)c2ccccc21", "note": "(stereo in doubt) [3-n-butylphthalide, 3-n-Butylphthalide]", "values": [
      {"measurement": "IC50", "setting": "[1]", "value": 35.2, "unit": "µM"},
      {"measurement": "IC50", "setting": "[2]", "value": 56.1, "unit": "µM"},
      {"measurement": "IC50", "setting": "[3]", "value": 8.1, "unit": "µM"}
    ]},
    {"smiles": "CCC/C=C1\\OC(=O)C2=C1CCC=C2", "note": "[Ligustilide]", "values": [
      {"measurement": "IC50", "setting": "[1]", "value": 20.4, "unit": "µM"},
      {"measurement": "IC50", "setting": "[2]", "value": 24.9, "unit": "µM"},
      {"measurement": "IC50", "setting": "[3]", "value": 15.7, "unit": "µM"}
    ]}
  ]
}
